Assay results reported in ChEMBL document CHEMBL1126424, “Preparation of the enantiomers of the novel CA-sensitizer EMD 53 998” (Bioorg Med Chem Lett, 1992).

Species on record: Cavia porcellus
Experiment: Increasing force in skinned fibers at constant buffered Ca-concentration
Type: functional
Conditions: not given

EC50 | SMILES
4.8 µM | COc1ccc(C(=O)N2CCCc3cc(C4=NNC(=O)SC4C)ccc32)cc1OC (stereo in doubt; form 1)
1.7 µM | COc1ccc(C(=O)N2CCCc3cc(C4=NNC(=O)SC4C)ccc32)cc1OC (stereo in doubt; form 3)
> 100 µM | COc1ccc(C(=O)N2CCCc3cc(C4=NNC(=O)SC4C)ccc32)cc1OC (stereo in doubt; form 2)

What follows are compounds tested against Phosphodiesterase 3 (Homo sapiens, UniProt Q14432+Q13370) (assay: Inhibition of guinea pig heart Phosphodiesterase 3). Conditions: target entry is the homologue from another species.
Type: protein assay, Cavia porcellus

IC50 | SMILES
0.06 µM | COc1ccc(C(=O)N2CCCc3cc(C4=NNC(=O)SC4C)ccc32)cc1OC (stereo in doubt; form 1)
1.94 µM | COc1ccc(C(=O)N2CCCc3cc(C4=NNC(=O)SC4C)ccc32)cc1OC (stereo in doubt; form 3)
0.05 µM | COc1ccc(C(=O)N2CCCc3cc(C4=NNC(=O)SC4C)ccc32)cc1OC (stereo in doubt; form 2)
